From patent publication US20230234943A1, “TREX1 INHIBITORS AND USES THEREOF” (Tempest Therapeutics, Inc., priority 2020, published 2023)

Target: T1, Human TREX1 enzyme (amino acids 1-242) (Homo sapiens, UniProt Q9NSU2)
T1 construct: Human TREX1 enzyme (amino acids 1-242)
T1 sequence (Q9NSU2 1-242): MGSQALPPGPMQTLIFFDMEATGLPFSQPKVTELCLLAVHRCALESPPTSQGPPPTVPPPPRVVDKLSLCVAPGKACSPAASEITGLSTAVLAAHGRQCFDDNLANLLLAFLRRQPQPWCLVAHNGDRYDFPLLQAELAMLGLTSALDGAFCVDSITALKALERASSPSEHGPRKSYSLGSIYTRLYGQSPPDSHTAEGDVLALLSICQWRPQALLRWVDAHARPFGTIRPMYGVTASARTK
Test: Human TREX1 enzymatic assay with dsDNA native oligonucleotide (Picogreen fluorescence)
Type: biochemical
Conditions: 2 mM dithiothreitol in assay buffer; 50 nM dsDNA oligonucleotide; 30 min preincubation at 25° C.; read-out: TREX1/Human + DTT IC50 AVG
In short: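 TREX1 (0.8–0.16 nM final) preincubated with compound (300 μM–13 nM or 30 μM–1.5 nM, 2% DMSO) 30 min at 25 °C in Tris pH 7.7, 5 mM MgCl2, 2 mM DTT. Annealed dsDNA (50 nM) added for 5–15 min at 25 °C; EDTA quench with Picogreen fluorescence readout.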

| SMILES | IC50 |
| --- | --- |
| COc1cc(-c2nc3cc(N4CCN(C)C4=O)ccc3n2C2(C)COC2)c(F)c(O)c1O [Example 197, 1-(2-(2-fluoro-3,4-dihydroxy-5-methoxyphenyl)-1-(3-methyloxetan-3-yl)-1H-benzo[d]imidazol-5-yl)-3-methylimidazolidin-2-one] | 100 to 1000 nM |
| COc1c(C)c(-c2nc3cc(N4CCC4)ccc3n2C2COC2)c(F)c(O)c1O [Example 199, 4-[5-(azetidin-1-yl)-1-(oxetan-3-yl)-1H-1,3-benzodiazol-2-yl]-3-fluoro-6-methoxy-5-methylbenzene-1,2-diol] | 1000 to 10000 nM |
| COc1c(C)c(-c2nc3ccccc3n2C2(C)COC2)cc(O)c1O [Example 201, 3-methoxy-4-methyl-5-[1-(3-methyloxetan-3-yl)-1H-1,3-benzodiazol-2-yl]benzene-1,2-diol] | 10000 to 100000 nM |
| COc1cc(-c2nc3cc(NC(=O)c4ccccn4)ccc3n2C2(C)COC2)c(F)c(O)c1O [Example 203, N-[2-(2-fluoro-3,4-dihydroxy-5-methoxyphenyl)-1-(3-methyloxetan-3-yl)-1H-1,3-benzodiazol-5-yl]pyridine-2-carboxamide] | ≤ 100 nM |
| COc1cc(-c2nc3ccc(C(=O)NC4CC(F)(F)C4)cc3n2C2(C)COC2)c(F)c(O)c1O [Example 205, N-(3,3-difluorocyclobutyl)-2-(2-fluoro-3,4-dihydroxy-5-methoxyphenyl)-1-(3-methyloxetan-3-yl)-1H-benzo[d]imidazole-6-carboxamide] | ≤ 100 nM |
| COc1cc(-c2nc3cc(NC(=O)c4cnoc4)ccc3n2C2(C)COC2)c(F)c(O)c1O [Example 206, N-(2-(2-fluoro-3,4-dihydroxy-5-methoxyphenyl)-1-(3-methyloxetan-3-yl)-1H-benzo[d]imidazol-5-yl)isoxazole-4-carboxamide] | 100 to 1000 nM |
| COc1cc(-c2nc3ccc(NC(C)=O)cc3n2C2(C)COC2)c(F)c(O)c1O [Example 207, N-[2-(2-fluoro-3,4-dihydroxy-5-methoxyphenyl)-1-(3-methyloxetan-3-yl)-1H-1,3-benzodiazol-6-yl]acetamide] | ≤ 100 nM |
| COc1cc(-c2nc3c(NC(C)=O)cccc3n2C2(C)COC2)c(F)c(O)c1O [Example 209, N-[2-(2-fluoro-3,4-dihydroxy-5-methoxyphenyl)-1-(3-methyloxetan-3-yl)-1H-1,3-benzodiazol-4-yl]acetamide] | 100 to 1000 nM |
| COC(=O)c1ccc2nc(-c3cc(OC)c(O)c(O)c3F)n(C3(C)COC3)c2c1 [Example 211, methyl 2-(2-fluoro-3,4-dihydroxy-5-methoxyphenyl)-1-(3-methyloxetan-3-yl)-1H-benzo[d]imidazole-6-carboxylate] | ≤ 100 nM |
| CNC(=O)c1cccc2c1nc(-c1cc(OC)c(O)c(O)c1F)n2C1(C)COC1 [Example 214, 2-(2-fluoro-3,4-dihydroxy-5-methoxyphenyl)-N-methyl-1-(3-methyloxetan-3-yl)-1H-1,3-benzodiazole-4-carboxamide] | 100 to 1000 nM |
| CCCC(=O)Nc1ccc2c(c1)nc(-c1cc(OC)c(O)c(O)c1F)n2C1(C)COC1 [Example 215, N-(2-(2-fluoro-3,4-dihydroxy-5-methoxyphenyl)-1-(3-methyloxetan-3-yl)-1H-benzo[d]imidazol-5-yl)butyramide] | ≤ 100 nM |
| COc1cc(-c2nc3ccccc3n2C2(C)COC2)c(OC(F)F)c(O)c1O [Example 217, 3-(difluoromethoxy)-6-methoxy-4-(1-(3-methyloxetan-3-yl)-1H-benzo[d]imidazol-2-yl)benzene-1,2-diol] | 10000 to 100000 nM |
| COc1cc(-c2nc3cc(N4CCC4)ccc3n2C)c(C(F)(F)F)c(O)c1O [Example 221, 4-(5-(azetidin-1-yl)-1-methyl-1H-benzo[d]imidazol-2-yl)-6-methoxy-3-(trifluoromethyl)benzene-1,2-diol] | 1000 to 10000 nM |
| CCNc1ccc2c(c1)nc(-c1cc(OC)c(O)c(O)c1F)n2C1(C)COC1 [Example 223, 4-(5-(ethylamino)-1-(3-methyloxetan-3-yl)-1H-benzo[d]imidazol-2-yl)-3-fluoro-6-methoxybenzene-1,2-diol] | 100 to 1000 nM |
| COc1cc(-c2nc3cc(NC(=O)CCO)ccc3n2C2(C)COC2)c(F)c(O)c1O [Example 224, N-(2-(2-fluoro-3,4-dihydroxy-5-methoxyphenyl)-1-(3-methyloxetan-3-yl)-1H-benzo[d]imidazol-5-yl)-3-hydroxypropanamide] | ≤ 100 nM |
| COc1cc(-c2nc3ccccc3n2C2(C)CCC2)c(C)c(O)c1O [Example 225, 6-methoxy-3-methyl-4-(1-(1-methylcyclobutyl)-1H-benzo[d]imidazol-2-yl)benzene-1,2-diol] | 1000 to 10000 nM |
| COc1cc(-c2nc3cnccc3n2C2(C)COC2)c(F)c(O)c1O [Example 229, 3-fluoro-6-methoxy-4-(1-(3-methyloxetan-3-yl)-1H-imidazo[4,5-c]pyridin-2-yl)benzene-1,2-diol] | 1000 to 10000 nM |
| COc1cc(-c2nc3ccncc3n2C2(C)COC2)c(F)c(O)c1O [Example 230, 3-fluoro-6-methoxy-4-[3(3-methyloxetan-3-yl)-3H-imidazo[4,5-c]pyridin-2-yl]benzene-1,2-diol] | 100 to 1000 nM |

Results, then the compound that gave them:

| IC50 | SMILES |
| --- | --- |
| ≤ 100 nM | COc1cc(-c2nc3cc(N4CCNC4=O)ccc3n2C2(C)COC2)c(F)c(O)c1O [Example 198, 1-(2-(2-fluoro-3,4-dihydroxy-5-methoxyphenyl)-1-(3-methyloxetan-3-yl)-1H-benzo[d]imidazol-5-yl)imidazolidin-2-one] |
| 1000 to 10000 nM | COc1c(C)c(-c2nc3cc(N4CCC4)ccc3n2C2CCC2)c(F)c(O)c1O [Example 200, 4-[5-(azetidin-1-yl)-1-cyclobutyl-1H-1,3-benzodiazol-2-yl]-3-fluoro-6-methoxy-5-methylbenzene-1,2-diol] |
| > 100000 nM | COc1cc(-c2nc3c(Cl)c(Cl)ccc3[nH]2)c(F)c(O)c1O [Example 202, 4-(6,7-dichloro-1H/benzo[d]imidazol-2-yl)-3-fluoro-6-methoxybenzene-1,2-diol] |
| ≤ 100 nM | COc1cc(-c2nc3cc(NC(=O)C4CC4)ccc3n2C2(C)COC2)c(F)c(O)c1O [Example 204, N-[2-(2-fluoro-3,4-dihydroxy-5-methoxyphenyl)-1-(3-methyloxetan-3-yl)-1H-1,3-benzodiazol-5-yl]cyclopropanecarboxamide] |
| 100 to 1000 nM | COc1cc(-c2nc3cccc(NC(C)=O)c3n2C2(C)COC2)c(F)c(O)c1O [Example 210, N-[2-(2-fluoro-3,4-dihydroxy-5-methoxyphenyl)-1-(3-methyloxetan-3-yl)-1H-1,3-benzodiazol-7-yl]acetamide] |
| ≤ 100 nM | CNC(=O)c1ccc2nc(-c3cc(OC)c(O)c(O)c3F)n(C3(C)COC3)c2c1 [Example 212, 2-(2-fluoro-3,4-dihydroxy-5-methoxyphenyl)-N-methyl-1-(3-methyloxetan-3-yl)-1H-benzo[d]imidazole-6-carboxamide] |
| ≤ 100 nM | CNC(=O)c1ccc2nc(-c3cc(OC)c(O)c(O)c3C)n(C3(C)COC3)c2c1 [Example 213, 2-(3,4-dihydroxy-5-methoxy-2-methylphenyl)-N-methyl-1-(3-methyloxetan-3-yl)-1H-1,3-benzodiazole-6-carboxamide] |
| 10000 to 100000 nM | COc1cc(-c2nc3ccccc3n2C2(C)COC2)c(C#N)c(O)c1O [Example 216, 2,3-dihydroxy-4-methoxy-6-[1-(3-methyloxetan-3-yl)-1H-1,3-benzodiazol-2-yl]benzonitrile] |
| ≤ 100 nM | CCc1cc2nc(-c3cc(OC)c(O)c(O)c3F)n(C3(C)COC3)c2cn1 [Example 218, 4-[6-ethyl-3-(3-methyloxetan-3-yl)-3H-imidazo[4,5-c]pyridin-2-yl]-3-fluoro-6-methoxybenzene-1,2-diol] |
| 100 to 1000 nM | COc1cc(-c2nc3cc(C(N)=O)ncc3n2C2(C)COC2)c(F)c(O)c1O [Example 219, 2-(2-fluoro-3,4-dihydroxy-5-methoxyphenyl)-3-(3-methyloxetan-3-yl)-3H-imidazo[4,5-c]pyridine-6-carboxamide] |
| 100 to 1000 nM | COc1cc(-c2cc3ccccc3n2C2(C)COC2)c(C)c(O)c1O [Example 220] |
| ≤ 100 nM | COc1cc(-c2nc3cc(NCc4ccccc4)ccc3n2C2(C)COC2)c(F)c(O)c1O [Example 222, 4-(5-(benzylamino)-1-(3-methyloxetan-3-yl)-1H-benzo[d]imidazol-2-yl)-3-fluoro-6-methoxybenzene-1,2-diol] |
| 1000 to 10000 nM | COc1cc(-c2nc3ccccc3n2C(C)C)c(C)c(O)c1O [Example 226, 4-(1-isopropyl-1H-benzo[d]imidazol-2-yl)-6-methoxy-3-methylbenzene-1,2-diol] |
| 100 to 1000 nM | COc1cc(-c2nc3ccccc3n2C(C)(C)C)c(C)c(O)c1O [Example 227, 4-(1-(tert-butyl)-1H-benzo[d]imidazol-2-yl)-6-methoxy-3-methylbenzene-1,2-diol] |
| 10000 to 100000 nM | COc1cc(-c2nc3ccc(S(=O)(=O)N(C)C)cc3n2C2(C)COC2)c(F)c(O)c1O [Example 228, 2-(2-fluoro-3,4-dihydroxy-5-methoxyphenyl)-N,N-dimethyl-1-(3-methyloxetan-3-yl)-1H-benzo[d]imidazole-6-sulfonamide] |
| > 100000 nM | COc1cc(-c2nc3cc(F)ccc3[nH]2)c(F)c(O)c1O [Example 231, 3-fluoro-4-(5-fluoro-1H-benzo[d]imidazol-2-yl)-6-methoxybenzene-1,2-diol] |
| 100 to 1000 nM | COc1cc(-c2nc3ccccc3n2C2(C)COC2)c(F)c(O)c1O [Example 232, 3-fluoro-6-methoxy-4-(1-(3-methyloxetan-3-yl)-1H-benzo[d]imidazol-2-yl)benzene-1,2-diol] |
